Data as given in US20230265151A1, “GIP/GLP1 CO-AGONIST COMPOUNDS” (priority 2020, published 2023).
Read-outs that look alike come from different tables or passages of the source.

Legend:
Type in all cases: cell-based
hGCGR = target: T1, hGCGR (Homo sapiens, UniProt P47871); test: Functional cAMP formation (HTRF) in HEK-293 clonal cells expressing hGCGR, 0.1% bovine casein, without or with 1.0% human serum albumin; settings: geometric mean
T1 construct: expressed in transfected cells
How it was run: (§1)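 Cells were stimulated with peptide for 30 min at 37° C, then intracellular cAMP was measured by competitive HTRF (665/620 nm ratio) and converted to nM using a cAMP standard curve. Relative EC50 and Emax came from four-parameter logistic fits of percent maximal response against peptide concentration.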

hGIPR = target: T2, hGIPR (Homo sapiens, UniProt P48546); test: Functional cAMP formation (HTRF) in HEK-293 clonal cells expressing hGIPR, 0.1% bovine casein, without or with 1.0% human serum albumin; settings: for EC50: geometric mean
T2 construct: expressed in transfected cells
T2 sequence (P48546 22-466): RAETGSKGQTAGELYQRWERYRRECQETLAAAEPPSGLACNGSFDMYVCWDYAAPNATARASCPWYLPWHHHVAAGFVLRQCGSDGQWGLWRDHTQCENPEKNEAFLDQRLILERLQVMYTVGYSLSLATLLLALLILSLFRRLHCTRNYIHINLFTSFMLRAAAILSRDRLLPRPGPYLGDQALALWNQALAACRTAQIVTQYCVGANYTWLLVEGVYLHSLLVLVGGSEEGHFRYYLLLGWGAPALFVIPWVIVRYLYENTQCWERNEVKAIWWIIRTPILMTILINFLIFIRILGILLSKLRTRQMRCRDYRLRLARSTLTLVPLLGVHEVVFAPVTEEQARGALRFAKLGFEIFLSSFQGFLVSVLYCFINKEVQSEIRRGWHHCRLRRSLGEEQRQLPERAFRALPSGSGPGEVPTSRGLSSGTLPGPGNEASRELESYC
How it was run: as §1

hGLP-1R = hGLP-1R (Homo sapiens, UniProt P43220); test: Functional cAMP formation (HTRF) in HEK-293 clonal cells expressing hGLP-1R, 0.1% bovine casein, without or with 1.0% human serum albumin; set-up: expressed in transfected cells; settings: for EC50: geometric mean
Chain of hGLP-1R (P43220 24-463): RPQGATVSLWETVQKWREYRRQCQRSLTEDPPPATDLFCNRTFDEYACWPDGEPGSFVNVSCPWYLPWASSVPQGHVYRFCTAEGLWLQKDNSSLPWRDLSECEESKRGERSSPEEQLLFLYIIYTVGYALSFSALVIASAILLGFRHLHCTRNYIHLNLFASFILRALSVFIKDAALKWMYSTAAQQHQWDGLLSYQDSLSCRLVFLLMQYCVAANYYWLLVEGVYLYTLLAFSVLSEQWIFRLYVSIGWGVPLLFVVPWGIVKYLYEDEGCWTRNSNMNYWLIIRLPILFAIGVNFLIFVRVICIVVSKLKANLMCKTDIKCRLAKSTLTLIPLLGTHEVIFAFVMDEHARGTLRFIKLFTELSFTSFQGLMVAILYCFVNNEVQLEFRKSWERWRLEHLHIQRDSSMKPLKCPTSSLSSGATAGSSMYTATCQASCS
How it was run: as §1

[1] = hGCGR EC50, nM (SEM, n), 0.1% bovine casein and 1.0% human serum albumin, 37° C.
[2] = hGCGR EC50, nM (SEM, n), cAMP, incubated at 37° C., 0.1% bovine casein (no human serum albumin)
[3] = HEK293, read-out: hGIPR Emax, % ± SEM, 0.1% bovine casein and 1.0% human serum albumin, 37° C., percent of maximal response to GIP(1-42)NH2
[4] = HEK293, read-out: hGIPR Emax, % ± SEM, percent of maximal response to GIP(1-42)NH2, 37° C., 0.1% bovine casein, arithmetic mean
[5] = hGIPR EC50, nM (SEM, n), 0.1% bovine casein and 1.0% human serum albumin, 37° C.
[6] = HEK293, read-out: hGLP-1R Emax, % ± SEM, 0.1% bovine casein and 1.0% human serum albumin, 37° C., percent of maximal response to GLP-1(7-36)NH2
[7] = 0.1% bovine casein and 1.0% human serum albumin, 37° C., read-out: hGCGR EC50, nM (SEM, n)
[8] = cAMP, incubated at 37° C., 0.1% bovine casein (no human serum albumin), read-out: hGCGR EC50, nM (SEM, n)
[9] = HEK293, 0.1% bovine casein and 1.0% human serum albumin, 37° C., percent of maximal response to GIP(1-42)NH2, read-out: hGIPR Emax, % ± SEM
[10] = HEK293, percent of maximal response to GIP(1-42)NH2, 37° C., 0.1% bovine casein, arithmetic mean, read-out: hGIPR Emax, % ± SEM
[11] = cAMP, incubated at 37° C., 0.1% bovine casein (no human serum albumin), read-out: hGIPR EC50, nM (SEM, n)
[12] = 0.1% bovine casein and 1.0% human serum albumin, 37° C., read-out: hGLP-1R EC50, nM (SEM, n)
[13] = cAMP, incubated at 37° C., 0.1% bovine casein (no human serum albumin), read-out: hGLP-1R EC50, nM (SEM, n)

T1 sequence (P47871 26-477): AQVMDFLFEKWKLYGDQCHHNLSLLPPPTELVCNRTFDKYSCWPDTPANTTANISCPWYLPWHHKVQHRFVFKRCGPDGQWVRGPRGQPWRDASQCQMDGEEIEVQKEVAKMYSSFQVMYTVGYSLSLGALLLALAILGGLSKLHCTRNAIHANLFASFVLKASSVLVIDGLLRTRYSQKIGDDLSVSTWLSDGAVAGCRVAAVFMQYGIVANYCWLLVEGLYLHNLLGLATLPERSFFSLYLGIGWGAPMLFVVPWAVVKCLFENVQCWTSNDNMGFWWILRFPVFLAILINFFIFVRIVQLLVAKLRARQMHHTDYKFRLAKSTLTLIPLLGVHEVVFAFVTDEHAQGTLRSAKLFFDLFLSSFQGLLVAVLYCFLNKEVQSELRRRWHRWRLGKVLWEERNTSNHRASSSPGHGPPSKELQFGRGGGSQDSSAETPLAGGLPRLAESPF

| Compound | EC50 (hGCGR; [1]) | EC50 (hGCGR; [2]) | Emax (hGIPR; [3]) | Emax (hGIPR; [4]) | EC50 (hGIPR; [5]) | Emax (hGLP-1R; [6]) | EC50 (hGLP-1R; hGLP-1R EC50, nM (SEM, n), 0.1% bovine casein and 1.0% human serum albumin, 37° C.) | EC50 (hGCGR; [7]) | EC50 (hGCGR; [8]) | Emax (hGIPR; [9]) | Emax (hGIPR; [10]) | EC50 (hGIPR; [11]) | EC50 (hGLP-1R; [12]) | Emax (hGLP-1R; HEK293, 0.1% bovine casein and 1.0% human serum albumin, 37° C., percent of maximal response to GLP-1(7-36)NH2, read-out: hGLP-1R Emax, % ± SEM) | Emax (hGLP-1R; HEK293, percent of maximal response to GLP-1(7-36)NH2, 37° C., 0.1% bovine casein, arithmetic mean, read-out: hGLP-1R Emax, % ± SEM) | EC50 (hGLP-1R; [13]) | EC50 (hGIPR; 0.1% bovine casein and 1.0% human serum albumin, 37° C., read-out: hGIPR EC50, nM (SEM, n)) |
| --- | --- | --- | --- | --- | --- | --- | --- | --- | --- | --- | --- | --- | --- | --- | --- | --- | --- |
| CC[C@H](C)[C@H](NC(=O)[C@H](CCCN)NC(=O)[C@H](CC(=O)O)NC(=O)[C@H](CC(C)C)NC(=O)[C@](C)(CC(C)C)NC(=O)[C@@H](NC(=O)[C@H](CO)NC(=O)[C@H](Cc1ccncc1)NC(=O)[C@H](CC(=O)O)NC(=O)[C@H](CO)NC(=O)[C@@H](NC(=O)[C@](C)(Cc1ccccc1F)NC(=O)[C@@H](NC(=O)CNC(=O)[C@H](CCC(=O)O)NC(=O)C(C)(C)NC(=O)[C@@H](N)Cc1ccc(O)cc1)[C@@H](C)O)[C@@H](C)O)[C@@H](C)CC)C(=O)N[C@@H](C)C(=O)N[C@@H](CCC(N)=O)C(=O)NC(C)(C)C(=O)N[C@@H](CCCCNC(=O)COCCOCCNC(=O)COCCOCCNC(=O)CCCCCCCCCCCCC(=O)O)C(=O)N[C@@H](Cc1ccccc1)C(=O)N[C@H](C(=O)N[C@@H](CCCCNC(=O)COCCOCCNC(=O)COCCOCCNC(=O)CCCCCCCCCCCCC(=O)O)C(=O)N[C@@](C)(Cc1ccc(O)cc1)C(=O)N[C@@H](CC(C)C)C(=O)N[C@H](C(=O)N[C@@H](CCC(=O)O)C(=O)NCC(=O)NCC(=O)N1CCC[C@H]1C(=O)N[C@@H](CO)C(=O)N[C@@H](CO)C(=O)NCC(=O)N[C@@H](C)C(=O)N1CCC[C@H]1C(=O)N1CCC[C@H]1C(=O)N1CCC[C@H]1C(=O)N[C@@H](CO)C(N)=O)[C@@H](C)CC)[C@@H](C)CC [Example 191] | > 9950 nM | > 9950 nM | 86.2 ± 5.5% | 90 ± 3.29% | 0.866 nM | 105 ± 7.98% | 13.1 nM |  |  |  |  |  |  |  |  |  |  |
| CC[C@H](C)[C@H](NC(=O)[C@H](CCCN)NC(=O)[C@H](CC(=O)O)NC(=O)[C@H](CC(C)C)NC(=O)[C@](C)(CC(C)C)NC(=O)[C@@H](NC(=O)[C@H](CO)NC(=O)[C@H](Cc1ccncc1)NC(=O)[C@H](CC(=O)O)NC(=O)[C@H](CO)NC(=O)[C@@H](NC(=O)[C@](C)(Cc1ccccc1F)NC(=O)[C@@H](NC(=O)CNC(=O)[C@H](CCC(=O)O)NC(=O)C(C)(C)NC(=O)[C@@H](N)Cc1ccc(O)cc1)[C@@H](C)O)[C@@H](C)O)[C@@H](C)CC)C(=O)N[C@@H](C)C(=O)N[C@@H](CCC(N)=O)C(=O)NC(C)(C)C(=O)N[C@@H](CCC(=O)O)C(=O)N[C@@H](Cc1ccccc1)C(=O)N[C@H](C(=O)N[C@@H](CCCCNC(=O)COCCOCCNC(=O)COCCOCCNC(=O)CCCCCCCCCCCCC(=O)O)C(=O)N[C@@](C)(Cc1ccc(O)cc1)C(=O)N[C@@H](CC(C)C)C(=O)N[C@H](C(=O)N[C@@H](CCCCNC(=O)COCCOCCNC(=O)COCCOCCNC(=O)CCCCCCCCCCCCC(=O)O)C(=O)NCC(=O)NCC(=O)N1CCC[C@H]1C(=O)N[C@@H](CO)C(=O)N[C@@H](CO)C(=O)NCC(=O)N[C@@H](C)C(=O)N1CCC[C@H]1C(=O)N1CCC[C@H]1C(=O)N1CCC[C@H]1C(=O)N[C@@H](CO)C(N)=O)[C@@H](C)CC)[C@@H](C)CC [Example 192] |  |  |  |  |  |  |  | > 9950 nM | > 9950 nM | 93.6 ± 3.98% | 96.5 ± 4.86% | 0.0375 nM | 11.2 nM | 121 ± 2.56% | 100 ± 2.34% | 0.518 nM |  |
| CC[C@H](C)[C@H](NC(=O)[C@H](CCCN)NC(=O)[C@H](CC(=O)O)NC(=O)[C@H](CC(C)C)NC(=O)[C@](C)(CC(C)C)NC(=O)[C@@H](NC(=O)[C@H](CO)NC(=O)[C@H](Cc1ccncc1)NC(=O)[C@H](CC(=O)O)NC(=O)[C@H](CO)NC(=O)[C@@H](NC(=O)[C@](C)(Cc1ccccc1F)NC(=O)[C@@H](NC(=O)CNC(=O)[C@H](CCC(=O)O)NC(=O)C(C)(C)NC(=O)[C@@H](N)Cc1ccc(O)cc1)[C@@H](C)O)[C@@H](C)O)[C@@H](C)CC)C(=O)N[C@@H](C)C(=O)N[C@@H](CCC(N)=O)C(=O)NC(C)(C)C(=O)N[C@@H](CCC(=O)O)C(=O)N[C@@H](Cc1ccccc1)C(=O)N[C@H](C(=O)N[C@@H](CCCCNC(=O)COCCOCCNC(=O)COCCOCCNC(=O)CCCCCCCCCCCCC(=O)O)C(=O)N[C@@](C)(Cc1ccc(O)cc1)C(=O)N[C@@H](CC(C)C)C(=O)N[C@H](C(=O)N[C@@H](CCC(=O)O)C(=O)NCC(=O)NCC(=O)N[C@@H](CCCCNC(=O)COCCOCCNC(=O)COCCOCCNC(=O)CCCCCCCCCCCCC(=O)O)C(=O)N[C@@H](CO)C(=O)N[C@@H](CO)C(=O)NCC(=O)N[C@@H](C)C(=O)N1CCC[C@H]1C(=O)N1CCC[C@H]1C(=O)N1CCC[C@H]1C(=O)N[C@@H](CO)C(N)=O)[C@@H](C)CC)[C@@H](C)CC [Example 193] |  |  |  |  |  |  |  | > 9950 nM | > 9950 nM | 92.2 ± 0.24% | 97.2 ± 4.63% | 0.0201 nM | 24.3 nM |  |  | 0.382 nM |  |
| CC[C@H](C)[C@H](NC(=O)[C@H](CCCN)NC(=O)[C@H](CC(=O)O)NC(=O)[C@H](CC(C)C)NC(=O)[C@](C)(CC(C)C)NC(=O)[C@@H](NC(=O)[C@H](CO)NC(=O)[C@H](Cc1ccncc1)NC(=O)[C@H](CC(=O)O)NC(=O)[C@H](CO)NC(=O)[C@@H](NC(=O)[C@](C)(Cc1ccccc1F)NC(=O)[C@@H](NC(=O)CNC(=O)[C@H](CCC(=O)O)NC(=O)C(C)(C)NC(=O)[C@@H](N)Cc1ccc(O)cc1)[C@@H](C)O)[C@@H](C)O)[C@@H](C)CC)C(=O)N[C@@H](C)C(=O)N[C@@H](CCC(N)=O)C(=O)NC(C)(C)C(=O)N[C@@H](CCC(=O)O)C(=O)N[C@@H](Cc1ccccc1)C(=O)N[C@H](C(=O)N[C@@H](CCCCNC(=O)COCCOCCNC(=O)COCCOCCNC(=O)CCCCCCCCCCCCC(=O)O)C(=O)N[C@@](C)(Cc1ccc(O)cc1)C(=O)N[C@@H](CC(C)C)C(=O)N[C@H](C(=O)N[C@@H](CCC(=O)O)C(=O)NCC(=O)NCC(=O)N1CCC[C@H]1C(=O)N[C@@H](CO)C(=O)N[C@@H](CO)C(=O)NCC(=O)N[C@@H](C)C(=O)N1CCC[C@H]1C(=O)N1CCC[C@H]1C(=O)N1CCC[C@H]1C(=O)N[C@@H](CO)C(=O)N[C@@H](CCCCNC(=O)COCCOCCNC(=O)COCCOCCNC(=O)CCCCCCCCCCCCC(=O)O)C(N)=O)[C@@H](C)CC)[C@@H](C)CC [Example 194] | > 9950 nM | > 9950 nM | 80.7 ± 7.81% | 93.1 ± 1.05% | 1.24 nM | 109 ± 10.5% |  |  |  |  |  |  |  |  |  |  |  |
| CC[C@H](C)[C@H](NC(=O)[C@H](CCCN)NC(=O)[C@H](CC(=O)O)NC(=O)[C@H](CC(C)C)NC(=O)[C@](C)(CC(C)C)NC(=O)[C@@H](NC(=O)[C@H](CO)NC(=O)[C@H](Cc1ccncc1)NC(=O)[C@H](CC(=O)O)NC(=O)[C@H](CO)NC(=O)[C@@H](NC(=O)[C@](C)(Cc1ccccc1F)NC(=O)[C@@H](NC(=O)CNC(=O)[C@H](CCC(=O)O)NC(=O)C(C)(C)NC(=O)[C@@H](N)Cc1ccc(O)cc1)[C@@H](C)O)[C@@H](C)O)[C@@H](C)CC)C(=O)N[C@@H](C)C(=O)N[C@@H](CCC(N)=O)C(=O)NC(C)(C)C(=O)N[C@@H](CCCCNC(=O)COCCOCCNC(=O)COCCOCCNC(=O)CCCCCCCCCCCCC(=O)O)C(=O)N[C@@H](Cc1ccccc1)C(=O)N[C@H](C(=O)N[C@H](CCC(=O)O)C(=O)N[C@@](C)(Cc1ccc(O)cc1)C(=O)N[C@@H](CC(C)C)C(=O)N[C@H](C(=O)N[C@@H](CCC(=O)O)C(=O)NCC(=O)NCC(=O)N[C@@H](CCCCNC(=O)COCCOCCNC(=O)COCCOCCNC(=O)CCCCCCCCCCCCC(=O)O)C(=O)N[C@@H](CO)C(=O)N[C@@H](CO)C(=O)NCC(=O)N[C@@H](C)C(=O)N1CCC[C@H]1C(=O)N1CCC[C@H]1C(=O)N1CCC[C@H]1C(=O)N[C@@H](CO)C(N)=O)[C@@H](C)CC)[C@@H](C)CC [Example 195] |  |  |  |  |  |  |  | > 9950 nM | > 9950 nM | 87 ± 12.2% | 88.5 ± 4.32% | 0.0219 nM | 14 nM |  |  | 0.343 nM | 0.771 nM |
